In patent publication US11667645B2, “Granzyme B directed imaging and therapy” (CytoSite Biopharma Inc., priority 2018, dated 2023):

The compounds below were run against Granzyme B (human lymphocytes) (Homo sapiens (Human), UniProt P10144) (assay: human Granzyme B biochemical assay). Conditions: Granzyme B (human lymphocytes) 5 nM, substrate Ac-IETD-AFC 200 μM, Cpd incubation with enzyme 30 mins, 22° C., read time 60 mins; read-out: IC50.
Outline: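 Fluorogenic Ac-IETD-AFC cleavage (Ex 400/Em 505 nm) read after 60 min at 22 °C, following 30 min, 22 °C enzyme–compound pre-incubation. Working stocks: enzyme 10 nM in 0.1% BSA buffer, substrate 800 µM, compound 8 points, 3.16-fold from 40 µM. Controls set 0% (DMSO) and 100% (standard inhibitor) inhibition; IC50 fitted.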

Chain of Granzyme B (human lymphocytes) (P10144 21-247): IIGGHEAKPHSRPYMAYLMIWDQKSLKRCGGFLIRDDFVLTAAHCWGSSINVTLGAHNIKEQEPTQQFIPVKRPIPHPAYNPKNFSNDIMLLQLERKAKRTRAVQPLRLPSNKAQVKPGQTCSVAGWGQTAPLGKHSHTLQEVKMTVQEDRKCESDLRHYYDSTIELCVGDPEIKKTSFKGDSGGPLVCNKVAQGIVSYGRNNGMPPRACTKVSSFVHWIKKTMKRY

`CC[C@H](C)[C@H](NC(=O)COCCF)C(=O)N[C@H]1CCc2cccc3c2N(C1=O)[C@H](C(=O)NCc1cc[nH]c1)C3` [Compound C107, (2S,5S)-5-{(2S,3S)-2-[2-(2-Fluoro-ethoxy)-acetylamino]-3-methyl-pentanoylamino}-4-oxo-1,2,4,5,6,7-hexahydro-azepino[3,2,1-hi]indole-2-carboxylic acid (1H-pyrrol-3-ylmethyl)-amide] and `CC[C@H](C)[C@H](NC(=O)COCCF)C(=O)N[C@H]1CCc2cccc3c2N(C1=O)[C@H](C(=O)NCc1ccsc1)C3` [Compound C109] cannot be ordered by IC50: greater than 5 µM for the first, greater than 5 µM for the second.

`CC[C@H](C)[C@H](NC(=O)COCCF)C(=O)N[C@H]1CCc2cccc3c2N(C1=O)[C@H](C(=O)NCc1cnc[nH]1)C3` [Compound C110, (2S,5S)-5-{(2S,3S)-2-[2-(2-Fluoro-ethoxy)-acetylamino]-3-methyl-pentanoylamino}-4-oxo-1,2,4,5,6,7-hexahydro-azepino[3,2,1-hi]indole-2-carboxylic acid (3H-imidazol-4-ylmethyl)-amide] and `CC[C@H](C)[C@H](NC(=O)COCCF)C(=O)N[C@H]1CCc2cccc3c2N(C1=O)[C@H](C(=O)NCc1cnco1)C3` [Compound C111, (2S,5S)-5-{(2S,3S)-2-[2-(2-Fluoro-ethoxy)-acetylamino]-3-methyl-pentanoylamino}-4-oxo-1,2,4,5,6,7-hexahydro-azepino[3,2,1-hi]indole-2-carboxylic acid (oxazol-5-ylmethyl)-amide] cannot be ordered by IC50: greater than 5 µM for the first, greater than 5 µM for the second.

`CC[C@H](C)[C@H](NC(=O)COCCF)C(=O)N[C@H]1CCc2cccc3c2N(C1=O)[C@H](C(=O)NCc1cncs1)C3` [Compound C112, (2S,5S)-5-{(2S,3S)-2-[2-(2-Fluoro-ethoxy)-acetylamino]-3-methyl-pentanoylamino}-4-oxo-1,2,4,5,6,7-hexahydro-azepino[3,2,1-hi]indole-2-carboxylic acid (thiazol-5-ylmethyl)-amide] and `CC[C@H](C)[C@H](NC(=O)COCCF)C(=O)N[C@H]1CCc2cccc3c2N(C1=O)[C@H](C(=O)NCc1cocn1)C3` [Compound C114, (2S,5S)-5-{(2S,3S)-2-[2-(2-Fluoro-ethoxy)-acetylamino]-3-methyl-pentanoylamino}-4-oxo-1,2,4,5,6,7-hexahydro-azepino[3,2,1-hi]indole-2-carboxylic acid (oxazol-4-ylmethyl)-amide] cannot be ordered by IC50: greater than 5 µM for the first, greater than 5 µM for the second.

`CC[C@H](C)[C@H](NC(=O)COCCF)C(=O)N[C@H]1CCc2cccc3c2N(C1=O)[C@H](C(=O)NCc1cscn1)C3` [Compound C115, (2S,5S)-5-{(2S,3S)-2-[2-(2-Fluoro-ethoxy)-acetylamino]-3-methyl-pentanoylamino}-4-oxo-1,2,4,5,6,7-hexahydro-azepino[3,2,1-hi]indole-2-carboxylic acid (thiazol-4-ylmethyl)-amide] and `CC[C@H](C)[C@H](NC(=O)COCCF)C(=O)N[C@H]1CCc2cccc3c2N(C1=O)[C@H](C(=O)NCc1cnsc1)C3` [Compound C118, (2S,5S)-5-{(2S,3S)-2-[2-(2-Fluoro-ethoxy)-acetylamino]-3-methyl-pentanoylamino}-4-oxo-1,2,4,5,6,7-hexahydro-azepino[3,2,1-hi]indole-2-carboxylic acid (isothiazol-4-ylmethyl)-amide] cannot be ordered by IC50: greater than 5 µM for the first, greater than 5 µM for the second.

`CC[C@H](C)[C@H](NC(=O)COCCF)C(=O)N[C@H]1CCc2cccc3c2N(C1=O)[C@H](C(=O)NCc1cn[nH]c1)C3` [Compound C116] and `CC[C@H](C)[C@H](NC(=O)COCCF)C(=O)N[C@H]1CCc2cccc3c2N(C1=O)[C@H](C(=O)NCc1cnoc1)C3` [Compound C117, (2S,5S)-5-{(2S,3S)-2-[2-(2-Fluoro-ethoxy)-acetylamino]-3-methyl-pentanoylamino}-4-oxo-1,2,4,5,6,7-hexahydro-azepino[3,2,1-hi]indole-2-carboxylic acid (isoxazol-4-ylmethyl)-amide] cannot be ordered by IC50: greater than 5 µM for the first, greater than 5 µM for the second.

Compared with `CC[C@H](C)[C@H](NC(=O)COCCF)C(=O)N[C@H]1CCc2cccc3c2N(C1=O)[C@H](C(=O)NCc1nn[nH]n1)C3` [Compound C119, (2S,5S)-5-{(2S,3S)-2-[2-(2-Fluoro-ethoxy)-acetylamino]-3-methyl-pentanoylamino}-4-oxo-1,2,4,5,6,7-hexahydro-azepino[3,2,1-hi]indole-2-carboxylic acid (2H-tetrazol-5-ylmethyl)-amide], `CC[C@H](C)[C@H](NC(=O)COCCF)C(=O)N[C@H]1CCc2cccc3c2N(C1=O)[C@H](C(=O)NCCc1cnn[nH]1)C3` [Compound C120, (2S,5S)-5-{(2S,3S)-2-[2-(2-Fluoro-ethoxy)-acetylamino]-3-methyl-pentanoylamino}-4-oxo-1,2,4,5,6,7-hexahydro-azepino[3,2,1-hi]indole-2-carboxylic acid [2-(3H-[1,2,3]triazol-4-yl)-ethyl]-amide] is higher in IC50: 0.001 to 0.3 µM for the first, greater than 5 µM for the second. The first is the more potent here.

`CC[C@H](C)[C@H](NC(=O)COCCF)C(=O)N[C@H]1CCc2cccc3c2N(C1=O)[C@H](C(=O)NCc1ccccn1)C3` [Compound C121, (2S,5S)-5-{(2S,3S)-2-[2-(2-Fluoro-ethoxy)-acetylamino]-3-methyl-pentanoylamino}-4-oxo-1,2,4,5,6,7-hexahydro-azepino[3,2,1-hi]indole-2-carboxylic acid (pyridin-2-ylmethyl)-amide] and `CC[C@H](C)[C@H](NC(=O)COCCF)C(=O)N[C@H]1CCc2cccc3c2N(C1=O)[C@H](C(=O)NCc1cccnc1)C3` [Compound C122, (2S,5S)-5-{(2S,3S)-2-[2-(2-Fluoro-ethoxy)-acetylamino]-3-methyl-pentanoylamino}-4-oxo-1,2,4,5,6,7-hexahydro-azepino[3,2,1-hi]indole-2-carboxylic acid (pyridin-3-ylmethyl)-amide] cannot be ordered by IC50: greater than 5 µM for the first, greater than 5 µM for the second.

`CC[C@H](C)[C@H](NC(=O)COCCF)C(=O)N[C@H]1CCc2cccc3c2N(C1=O)[C@H](C(=O)NCc1ccncc1)C3` [Compound C123, (2S,5S)-5-{(2S,3S)-2-[2-(2-Fluoro-ethoxy)-acetylamino]-3-methyl-pentanoylamino}-4-oxo-1,2,4,5,6,7-hexahydro-azepino[3,2,1-hi]indole-2-carboxylic acid (pyridin-4-ylmethyl)-amide] and `CC[C@H](C)[C@H](NC(=O)COCCF)C(=O)N[C@H]1CCc2cccc3c2N(C1=O)[C@H](C(=O)NCc1ccc(C)cc1)C3` [Compound C129, (2S,5S)-5-{(2S,3S)-2-[2-(2-Fluoro-ethoxy)-acetylamino]-3-methyl-pentanoylamino}-4-oxo-1,2,4,5,6,7-hexahydro-azepino[3,2,1-hi]indole-2-carboxylic acid 4-methyl-benzylamide] cannot be ordered by IC50: greater than 5 µM for the first, greater than 5 µM for the second.

`CC[C@H](C)[C@H](NC(=O)COCCF)C(=O)N[C@H]1CCc2cccc3c2N(C1=O)[C@H](C(=O)NCc1ccccc1C)C3` [Compound C127, (2S,5S)-5-{(2S,3S)-2-[2-(2-Fluoro-ethoxy)-acetylamino]-3-methyl-pentanoylamino}-4-oxo-1,2,4,5,6,7-hexahydro-azepino[3,2,1-hi]indole-2-carboxylic acid 2-methyl-benzylamide] and `CC[C@H](C)[C@H](NC(=O)COCCF)C(=O)N[C@H]1CCc2cccc3c2N(C1=O)[C@H](C(=O)NCc1ccccc1Cl)C3` [Compound C130, (2S,5S)-5-{(2S,3S)-2-[2-(2-Fluoro-ethoxy)-acetylamino]-3-methyl-pentanoylamino}-4-oxo-1,2,4,5,6,7-hexahydro-azepino[3,2,1-hi]indole-2-carboxylic acid 2-chloro-benzylamide] cannot be ordered by IC50: greater than 5 µM for the first, greater than 5 µM for the second.

`CC[C@H](C)[C@H](NC(=O)COCCF)C(=O)N[C@H]1CCc2cccc3c2N(C1=O)[C@H](C(=O)NCc1cccc(C)c1)C3` [Compound C128, (2S,5S)-5-{(2S,3S)-2-[2-(2-Fluoro-ethoxy)-acetylamino]-3-methyl-pentanoylamino}-4-oxo-1,2,4,5,6,7-hexahydro-azepino[3,2,1-hi]indole-2-carboxylic acid 3-methyl-benzylamide] and `CC[C@H](C)[C@H](NC(=O)COCCF)C(=O)N[C@H]1CCc2cccc3c2N(C1=O)[C@H](C(=O)NCc1cccc(Cl)c1)C3` [Compound C131, (2S,5S)-5-{(2S,3S)-2-[2-(2-Fluoro-ethoxy)-acetylamino]-3-methyl-pentanoylamino}-4-oxo-1,2,4,5,6,7-hexahydro-azepino[3,2,1-hi]indole-2-carboxylic acid 3-chloro-benzylamide] cannot be ordered by IC50: greater than 5 µM for the first, greater than 5 µM for the second.

`CC[C@H](C)[C@H](NC(=O)COCCF)C(=O)N[C@H]1CCc2cccc3c2N(C1=O)[C@H](C(=O)NCc1ccc(Cl)cc1)C3` [Compound C132, (2S,5S)-5-{(2S,3S)-2-[2-(2-Fluoro-ethoxy)-acetylamino]-3-methyl-pentanoylamino}-4-oxo-1,2,4,5,6,7-hexahydro-azepino[3,2,1-hi]indole-2-carboxylic acid 4-chloro-benzylamide] and `CC[C@H](C)[C@H](NC(=O)COCCF)C(=O)N[C@H]1CCc2cccc3c2N(C1=O)[C@H](C(=O)NCc1cc(Cl)cc(Cl)c1)C3` [Compound C133, (2S,5S)-5-{(2S,3S)-2-[2-(2-Fluoro-ethoxy)-acetylamino]-3-methyl-pentanoylamino}-4-oxo-1,2,4,5,6,7-hexahydro-azepino[3,2,1-hi]indole-2-carboxylic acid 3,5-dichloro-benzylamide] cannot be ordered by IC50: greater than 5 µM for the first, greater than 5 µM for the second.

`CC[C@H](C)[C@H](NC(=O)COCCF)C(=O)N[C@H]1CNc2cccc3c2N(C1=O)[C@H](C(=O)NCc1c[nH]nn1)C3` [Compound C143, (3S,6S)-3-{(2S,3S)-2-[2-(2-Fluoro-ethoxy)-acetylamino]-3-methyl-pentanoylamino}-4-oxo-1,2,3,4,6,7-hexahydro-[1,4]diazepino[3,2,1-hi]indole-6-carboxylic acid (1H-[1,2,3]triazol-4-ylmethyl)-amide] was tested, and the IC50 was 0.001 to 0.3 µM.
